Consider 16 compounds from PubChem BioAssay (NCI).

Common to all, as to experiment: NCI anticancer screen, dose series, 48 h
For test [1], the system named is NCI-H522 lung.
Test [2] relates to UO-31 renal.
In test [3] the test system is UACC-257 melanoma.
For test [4], the system named is LOX IMVI melanoma.
For test [5], the system named is KM12 colon.
Test [6] deals with NCI-H23 lung.
Test [7] concerns IGROV1 ovarian.
For test [8], the system named is SN12C renal.
For test [9], the system named is HT29 colon.
The subject of test [10] is RXF 393 renal.

Several values for one entry are separate records, joined by “and”; a condition that tells them apart may be missing. Equal entries are not always repeated.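 How tested: cells in 96-well plates exposed to compound for 48 hours at five concentrations. GI50: concentration for 50% inhibition of growth. TGI is the concentration that stops growth completely.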

Take `COc1ccc(S(=O)(=O)Nc2cc(/C=C\c3cc(OC)c(OC)c(OC)c3)ccc2OC)cc1`: the GI50 in test [1] was 0.0204 µM; in test [2], 0.131 µM; in [3], 2.98 µM; in test [4], 0.272 µM; in test [5], 0.0738 µM; in test [6], 0.48 µM. The GI50 is 0.166 µM in test [7], 0.682 µM in test [8], 0.0809 µM in [9] and 0.0814 µM in test [10]. Besides, the TGI in test [1] was 0.0564 µM; in test [2], 7.48 µM; in test [3], 93.4 µM; in [4], > 100 µM; in test [5] it was > 100 µM; in [6] it was > 100 µM. The TGI in [7] is > 100 µM; in test [8], > 100 µM; in test [9], 8.22 µM; in test [10], > 100 µM.
Regarding `CCCCCCCCCCCCOC1C(C(COC2OC(C3COC(C)(C)O3)C3OC(C)(C)OC23)NC(=O)NS(=O)(=O)c2ccccc2)OC2OC(C)(C)OC21` (stereo not given), the GI50 was 6.56 µM in test [1]; 5.16 µM in [2]; 4 µM in test [3]; 5.22 µM in [4]; 5.15 µM in test [5]; 4.34 µM in test [6]. Moreover, the GI50 is 2.53 µM in test [7], 3.95 µM in test [8], 4.32 µM in test [9] and 3.02 µM in [10]. Also, the TGI in test [1] worked out at 32.8 µM; in test [2] it was 19.7 µM; in test [3], 16.5 µM; in [4], 19.7 µM; in [5], 31.5 µM; in test [6], 19.3 µM. Also, the TGI in [7] was determined as 11.2 µM; in test [8], 15.2 µM; in [9] it was 16.4 µM; in [10], 7.47 µM.
As to `C=C1C(=O)O[C@H]2[C@H](OC(C)=O)[C@@H](C)CCC/C(C)=C/CC[C@@]3(C)O[C@@H]3C[C@@H]12`, the TGI came out at 3.9 µM in test [1]; 7.51 µM in test [2]; 11.7 µM in test [3]; 3.9 µM in test [4]; 18.8 µM in test [5]; 10.8 µM in test [6]. For the same compound, the TGI in [7] was 18.4 µM; in test [8], 4.05 µM; in [9] it was 8.05 µM; in [10], 5.08 µM.
Regarding `COc1cc(/C=C/C(=O)c2c(C)nc3ccccc3c2/C=C/c2ccc(C)cc2)cc(OC)c1OC`, the GI50 in test [1] is 1.83 µM; in test [2] it was 1.37 µM; in test [3], 2.71 µM; in test [4], 1.45 µM; in [5], 1.87 µM; in [6] it was 1.72 µM. Also, the GI50 was 1.72 µM in test [7], 1.85 µM in test [8], 2.81 µM in test [9] and 1.63 µM in [10]. Moreover, the TGI in [1] is 5.56 µM; in [2] it was 2.67 µM; in test [3], 7.32 µM; in [4] it was 2.76 µM; in test [5], 3.6 µM; in [6], 3.8 µM. Also, the TGI stood at 3.72 µM in test [7], 4.31 µM in test [8], 14 µM in test [9] and 3.13 µM in test [10].
On to `COc1ccc(CC(=O)NCCc2ccc(OC)c(OC)c2)cc1Br`, for which the TGI in test [1], in test [2], in test [3], in test [4], in test [5] and in [6] was > 100 µM throughout. The TGI in test [7], in [8], in test [9] and in test [10] was > 100 µM each time.
Take `O=S(=O)(c1cccc2c(Cl)cccc12)N1CCCNCC1`: the GI50 is 19.7 µM in test [1]; 14.1 µM in [2]; 10.1 µM in test [3]; 13.4 µM in test [4]; 15 µM in test [5]; 13.8 µM in [6]. Besides, the GI50 in test [7] was 18.6 µM; in test [8], 12.2 µM; in test [9], 3.62 µM; in test [10], 2.88 µM. The TGI in test [1] is 37.1 µM; in test [2] it was 28.5 µM; in test [3], 22.8 µM; in test [4], 26.3 µM; in test [5], 28.2 µM; in test [6], 27.1 µM. Further, the TGI worked out at 34.6 µM in test [7], 24.6 µM in test [8], 18.1 µM in test [9] and 22.4 µM in [10].
Regarding `Nc1c([N+](=O)[O-])cc2c3c(cccc13)CC2`, the TGI in [1], in [2], in [3], in test [4], in test [5] and in [6] was > 100 µM each time. Besides, the TGI in test [7] was > 100 µM; in [8] it was > 100 µM; in test [9], > 100 µM; in test [10] it was 74.2 µM.
Take `COc1ccc(-n2cc(-c3cc(OC)c(OC)c(OC)c3)nc2SCc2ccccc2)cc1OC`: the GI50 is 41.8 µM in test [1]; 17.7 µM in [2]; 77.9 µM in test [3]; 59.3 µM in test [4]; > 100 µM in test [5]; > 100 µM in test [6]. In addition, the GI50 in [7] was 31.6 µM; in test [8], > 100 µM; in test [9], > 100 µM; in test [10] it was 56.3 µM. The TGI in test [1], in test [2], in test [3], in test [4], in test [5] and in test [6] was > 100 µM each time. Also, the TGI in test [7] was 88 µM; in [8], > 100 µM; in [9], > 100 µM; in test [10], > 100 µM.
`Oc1ccccc1C=Nc1nc(SCc2ccccc2)nc2[nH]ncc12`: the GI50 in test [1] was 50.9 µM; in test [2] it was 94.8 µM; in test [3] it was 52.3 µM; in [4], 56.3 µM; in test [5], 37.5 µM; in test [6], 61.2 µM. In addition, the GI50 in test [7] was > 100 µM; in [8] it was > 100 µM; in test [9], 54.6 µM; in [10], 32.5 µM. The TGI in [1], in [2], in test [3], in [4], in [5] and in test [6] was > 100 µM throughout. Besides, the TGI in test [7], in [8], in [9] and in [10] was > 100 µM in each case.
As for `Cc1ccc(NC(=O)C(=O)CC(=O)c2c(C)n([O-])c3ccccc3[n+]2=O)cc1`, the TGI in [1] was 46.1 µM; in test [2], > 100 µM; in test [3], 50.7 µM; in test [4] it was 45.4 µM; in [5], > 100 µM; in test [6] it was 56.6 µM. Besides, the TGI in test [7] is 78.3 µM; in test [8] it was > 100 µM; in test [9], 86.4 µM; in [10], > 100 µM.
Consider `COc1cc2c(cc1OCCCCCOc1ccc(-n3c(C)nc4ccccc4c3=O)cc1)N=C[C@@H]1CCCN1C2=O`, for which the GI50 was 0.204 µM in test [1]; 0.336 µM in [2]; 0.434 µM in [3]; 0.176 µM in test [4]; 0.173 µM in test [5]; 0.226 µM in test [6]. Further, the GI50 in [7] was 0.182 µM; in test [8], 0.264 µM; in test [9], 0.317 µM; in test [10], 0.21 µM. The TGI was 0.958 µM in test [1]; 1.71 µM in test [2]; 1.48 µM in [3]; 0.447 µM in [4]; 0.362 µM in test [5]; 0.528 µM in test [6]. For the same compound, the TGI was 0.64 µM in test [7], 3.38 µM in test [8], > 100 µM in test [9] and 0.39 µM in test [10].
Consider `c1ccc2cc3[s+]snc3cc2c1`, for which the TGI in test [1], in test [2], in test [3], in test [4], in [5] and in [6] was > 100 µM throughout. Besides, the TGI in test [7], in [8], in [9] and in [10] was > 100 µM each time.
Turning to `CC1(O)CC(c2nc(-c3ccc4ccc(-c5ccccc5)nc4c3)c3c(N)nccn23)C1` (stereo not given), the GI50 in test [1] was 12 µM and > 10 µM; in test [2], 3.6 µM and 1.65 µM; in test [3], 5.68 µM and > 10 µM; in [4], 7.41 µM and 6.46 µM; in test [5] it was 4.31 µM and 3.88 µM; in [6] it was 8.83 µM and 5.03 µM. The GI50 is 19.1 µM and > 10 µM in test [7]; 9.64 µM and > 10 µM in [8]; 0.105 µM and 0.0588 µM in test [9]; 3.71 µM and 4.96 µM in [10]. The TGI was 35.5 µM and > 10 µM in [1]; > 76.3 µM in [2]; 48.2 µM and > 10 µM in [3]; 45.4 µM and > 10 µM in [4]; 19.4 µM and > 10 µM in [5]; > 80.8 µM in test [6]. Besides, the TGI in [7] was > 100 µM; in test [8], > 80.9 µM; in test [9], 21.5 µM and > 10 µM; in [10], 13.7 µM and > 10 µM.
Regarding `C=C1C(=O)O[C@H]2[C@H]1CCC(/C=N/c1ncc(Br)cc1N)=C\CC[C@@]1(C)O[C@@H]21`, the GI50 in test [1] is 0.781 µM; in test [2] it was 1.28 µM; in [3], 1.8 µM; in test [4] it was 1.71 µM; in test [5] it was 5.07 µM; in [6], 3.18 µM. For the same compound, the GI50 in test [7] is 2.11 µM; in test [8] it was 1.78 µM; in test [9] it was 1.93 µM; in [10], 1.38 µM. The TGI was found to be 2.6 µM in [1]; 2.63 µM in [2]; 4.45 µM in test [3]; 3.46 µM in test [4]; 20.2 µM in [5]; 17.2 µM in test [6]. The TGI in test [7] was determined as 7.44 µM; in test [8] it was 5.41 µM; in test [9] it was 5.52 µM; in test [10] it was 2.9 µM.
As to `Cc1cc(NCc2cc(Nc3ccnc4cc(Cl)ccc34)ccc2F)nc(N2CCN(C)CC2)n1`, the GI50 in test [1] is 2.22 µM; in [2], 1.38 µM; in test [3], 1.87 µM; in [4] it was 1.26 µM; in test [5] it was 2.11 µM; in [6], 2.1 µM. In addition, the GI50 in [7] was 2.08 µM; in [8] it was 2.32 µM; in [9], 1.72 µM; in test [10], 1.26 µM. For the same compound, the TGI turned out to be 4.79 µM in [1]; 3.11 µM in [2]; 3.68 µM in [3]; 2.65 µM in [4]; 6.5 µM in test [5]; 6.54 µM in test [6]. The TGI was determined as 5.76 µM in test [7], 8.31 µM in [8], 5.13 µM in test [9] and 2.94 µM in test [10].
Turning to `COc1ccccc1N1CCN(CCc2c[nH]c3cc4c(cc23)OCO4)CC1`, the GI50 is 44.2 µM in test [1]; 20.3 µM in test [2]; 26.5 µM in [3]; 11.6 µM in [4]; 27.3 µM in [5]; 23.4 µM in test [6]. The GI50 was 40.2 µM in test [7], 23.5 µM in test [8], 3.39 µM in test [9] and 17.9 µM in test [10]. Moreover, the TGI in test [1] is > 100 µM; in [2] it was > 100 µM; in test [3], 88.9 µM; in test [4], 35.7 µM; in test [5], > 100 µM; in [6] it was > 100 µM. Further, the TGI in test [7] was > 100 µM; in test [8], > 100 µM; in test [9], > 100 µM; in [10], 92.9 µM.
